Data reported in US20100190743A1, “Method and Composition for Treatment of a Mucosal Tissue Disorder” (Chitogenics, Inc., priority 2005, published 2010).

Tests used:
[1] = system: interstitial cystitis; details: cited from earlier work
[2] = system: rat model of Interstitial Cystitis; test: Efficacy of sNOCC in reducing inflammation in a rat model of interstitial cystitis (Example 2), bladder histology inflammatory score; assay type: in vivo
Experimental: Animals: Female Sprague-Dawley rats (225-250 g) were purchased from Charles River Laboratories. Animals were provided with food and water ad libitum. Intra-vesicular inoculation of protamine sulfate (PS) and LPS: Rats were anesthetized with sodium pentobarbital (65 mg/kg). The surface area around the urethral opening was swabbed with 70% isopropyl alcohol and Betadine. A lubricated sterile catheter (PE-50), handled with sterile gloves, was inserted into the bladder through the urethral opening. The catheter was connected to a 1 ml syringe via a 25 G needle and the bladder was emptied as described above. One group of rats was inoculated with 1 ml PS (10 mg/ml) in phosphate buffered saline (PBS) into the bladder via the catheter. After 45 minutes, the bladders were emptied, washed with PBS, then given a second treatment with 1 ml LPS (750 μg/ml) in PBS for 30 minutes. […]
The parameters of inflammation measured were: increased venous blood vessel size and volume (venous congestion), edema, cellular infiltration, and epithelial damage. […] The parameters were measured by a blinded observer using a five point score with 0 being the least severe and 5 being the most severe. A total inflammatory score was calculated for each rat by adding together the scores of the four inflammatory parameters. A mean total inflammatory score was calculated for each group. […]

oxychlorosene sodium
results relative to instillation of DMSO ([1]; Messing et al. 1978): Equivalent results

C[S+](C)[O-] [DMSO, dimethylsulfoxide]
average length of response ([1]; instillation into the bladder for six to eight weeks): six
response rate ([1]; instillation into the bladder for six to eight weeks, placebo 18%): 53%

Nc1ccc(O)c(C(=O)O)c1 [saline + 5ASA, 5-aminosalicylic acid]
Mean Inflammatory Score (±SEM) ([2]; agent 1 ml intravesical 1 day after PS/LPS, sacrifice day 5 post inoculation, total of four parameters each scored 0-5, saline control 12.7 (±1.5)): 7.9 (±1.8)
% reduction of inflammation from saline treated control ([2]; from mean inflammatory score, day 5 post inoculation): 37.5%
